According to patent publication US8551981B2, “Furo[3,2-d]pyrimidine compounds” (AbbVie Inc., priority 2010, dated 2013):

System: Fcγ receptor signaling
Assay: Reverse Passive Arthus model
Format: in vivo
Conditions: Rattus norvegicus, single dose 10 mg/kg
Procedure: Acute in vivo measurement of Fcγ receptor signaling inhibition of the compounds is measured using the:
Reverse Passive Arthus Model
On day 0 OVA was made up at a concentration of 17 mg/mL, in PBS by rocking gently until a solution was formed. 2% Evans Blue solution (Sigma Aldrich, cat# E2129) was then added to double the volume for a final concentration of 8.5 mg/mL of OVA and 1% Evans Blue dye. Anti-OVA antibody (Abazyme), stock concentration 10 mg/mL, was thawed and a 4 mg/mL solution was made with PBS. Compounds were made up in 0.5% HPMC with 0.02% Tween 80, and vortexed for about 15 seconds followed by homogenization for a minimum of about 2 min at 28,000 RPM until there was a fine particulate suspension with no clumps of compound. Rats were weighed and dosed with compound at a pre-determined time based on compound Tmax determined in pharmacokinetic studies. Animals were then placed under general anesthesia with a 5% isoflourane and oxygen mixture and shaved. Using a 0.5 cc insulin syringe two sites were injected i.d., 1 site with 100 μL of 4.0 mg/mL of anti-OVA antibody, and 1 site with 100 μL of sterile PBS. Each injection site was circled with a permanent marker to mark the site. Immediately following i.d. injections, animals were injected with 200 μL of the OVA (10 mg/kg)/1% Evans Blue mixture, i.v., using a 0.5 cc insulin syringe. About 4 h post injection animals were euthanized, bled via cardiac puncture and blood was put into plasma separation tubes. Blood samples were stored on ice until centrifugation (within about 2 h of collection). Each injection site was removed with a disposable biopsy punch (Acuderm Acu-Punch Disposable 12 mm), cut into four pieces and placed in a pre-labeled 2 mL eppendorf tube. One mL of DMF (99%) was added to each biopsy tube and they were placed in a heat block at about 50° C. for about 24 h. After incubation, 100 μL of each sample was transferred to a 96 well flat bottom plate and read at 620 nm on a plate reader using the Softmax software. Background was removed by subtracting the OD from the PBS injected site from the OD of the anti-OVA injected site for each individual animal. Plasma samples were spun down in a microcentrifuge (Eppendorf 5415R) for about 5 min at 16.1 rcf. 200 μL of plasma was placed in a 1.7 mL eppendorf tube for drug level measurements and tubes were stored at about −80° C. until evaluation.

For `CC1(C)C(=O)Nc2cc(Nc3nc(N4CCC5(CCCNC5)CC4)c4occc4n3)ccc21` [C.1.37], which inhibition in vivo at 10 mg/kg is on record?
Its inhibition in vivo at 10 mg/kg is -5%.

How did the inhibition in vivo at 10 mg/kg turn out when `CNCC1CCN(c2nc(Nc3ccc4c(c3)NC(=O)C(C)(C)S4)nc3ccoc23)CC1` [C.1.71] was run?
The inhibition in vivo at 10 mg/kg was 85%.

How did the inhibition in vivo at 10 mg/kg turn out when `Cc1n[nH]c2cc(Nc3nc(N4CCC5(CC4)CNCCO5)c4occc4n3)ccc12` [Q.1.4] was run?
Its inhibition in vivo at 10 mg/kg is 33%.

How did the inhibition in vivo at 10 mg/kg turn out when `FC(F)CNCC1CCN(c2nc(Nc3ccc(N4CCOCC4)c(Cl)c3)nc3ccoc23)CC1` [B.5.85] was run?
The inhibition in vivo at 10 mg/kg was 52%.

With `CC1(C)Oc2ccc(Nc3nc(N4CCC(CNCCS(C)(=O)=O)CC4)c4occc4n3)cc2NC1=O` [B.5.65] as the compound, how does the inhibition in vivo at 10 mg/kg read?
The inhibition in vivo at 10 mg/kg was 9%.

With `CNCC1CCN(c2nc(Nc3ccc4c(cnn4C)c3)nc3ccoc23)CC1` [C.1.49] as the compound, how does the inhibition in vivo at 10 mg/kg read?
The inhibition in vivo at 10 mg/kg was -20%.

For `O=C1Nc2cc(Nc3nc(NC4CC4)c4occc4n3)ccc2OC1(F)F` [B.5.40], which inhibition in vivo at 10 mg/kg is on record?
Its inhibition in vivo at 10 mg/kg is 3%.

Which inhibition in vivo at 10 mg/kg does the source give for `CC1(C)Oc2ccc(Nc3nc(N4CCC5(CCCNC5)CC4)c4occc4n3)cc2NC1=O` [C.1.59] here?
Its inhibition in vivo at 10 mg/kg is 20%.

With `Cc1n[nH]c2cc(Nc3nc(N4CCC(CNCCS(C)(=O)=O)CC4)c4occc4n3)ccc12` [C.1.60] as the compound, how does the inhibition in vivo at 10 mg/kg read?
The inhibition in vivo at 10 mg/kg was 24%.

With `N#Cc1n[nH]c2cc(Nc3nc(NC4CC4)c4occc4n3)ccc12` [J.1.8] as the compound, how does the inhibition in vivo at 10 mg/kg read?
Its inhibition in vivo at 10 mg/kg is 9%.

`CNCC1CCN(c2nc(Nc3ccc(C(C)(C)C#N)cc3)nc3ccoc23)CC1` [C.1.57] was tested. Which inhibition in vivo at 10 mg/kg did it give?
Its inhibition in vivo at 10 mg/kg is 12%.

Which inhibition in vivo at 10 mg/kg does the source give for `CC1(CN)CCN(c2nc(Nc3ccc4cn[nH]c4c3)nc3ccoc23)CC1` [Example #12, 4-(4-(Aminomethyl)-4-methylpiperidin-1-yl)-N-(1H-indazol-6-yl)furo[3,2-d]pyrimidin-2-amine] here?
The inhibition in vivo at 10 mg/kg was 8%.

For `NCC1CCN(c2nc(Nc3ccc4c(c3)NC(=O)CC4)nc3ccoc23)CC1` [C.1.61], which inhibition in vivo at 10 mg/kg is on record?
Its inhibition in vivo at 10 mg/kg is 20%.

With `CNCC1CCN(c2nc(Nc3ccc4c(c3)NC(=O)C4(C)C)nc3ccoc23)CC1` [C.1.51] as the compound, how does the inhibition in vivo at 10 mg/kg read?
The inhibition in vivo at 10 mg/kg was -7%.

For `CC1(C)Oc2ccc(Nc3nc(N4CCC5(CCNC5)CC4)c4occc4n3)cc2NC1=O` [C.1.58], which inhibition in vivo at 10 mg/kg is on record?
The inhibition in vivo at 10 mg/kg was -18%.

How did the inhibition in vivo at 10 mg/kg turn out when `c1cc(-c2n[nH]c3cc(Nc4nc(NC5CC5)c5occc5n4)ccc23)ccn1` [J.1.7] was run?
Its inhibition in vivo at 10 mg/kg is 12%.

For `Cc1n[nH]c2cc(Nc3nc(N4CCCC(N)CC4)c4occc4n3)ccc12` (stereo not shown) [C.1.29], which inhibition in vivo at 10 mg/kg is on record?
Its inhibition in vivo at 10 mg/kg is -5%.

How did the inhibition in vivo at 10 mg/kg turn out when `CC1(C)C(=O)Nc2cc(Nc3nc(NCC(F)F)c4occc4n3)ccc21` [Example #16, 6-(4-(2,2-Difluoroethylamino)furo[3,2-d]pyrimidin-2-ylamino)-3,3-dimethylindolin-2-one] was run?
Its inhibition in vivo at 10 mg/kg is 63%.

For `CCCNc1nc(Nc2ccc3c(c2)NC(=O)C3(C)C)nc2ccoc12` [B.5.81], which inhibition in vivo at 10 mg/kg is on record?
The inhibition in vivo at 10 mg/kg was 16%.

Which inhibition in vivo at 10 mg/kg does the source give for `O=C(NC1CC1)c1n[nH]c2cc(Nc3nc(NC4CC4)c4occc4n3)ccc12` [E.2.1, N-Cyclopropyl-6-(4-(cyclopropylamino)furo[3,2-d]pyrimidin-2-ylamino)-1H-indazole-3-carboxamide] here?
The inhibition in vivo at 10 mg/kg was -1%.

For `CC1(C)C(=O)Nc2cc(Nc3nc(N4CCC(CNCCS(C)(=O)=O)CC4)c4occc4n3)ccc21` [B.5.68], which inhibition in vivo at 10 mg/kg is on record?
The inhibition in vivo at 10 mg/kg was 1%.

With `Clc1cc(Nc2nc(N3CCC4(CCCNC4)CC3)c3occc3n2)ccc1N1CCOCC1` [C.1.41] as the compound, how does the inhibition in vivo at 10 mg/kg read?
Its inhibition in vivo at 10 mg/kg is 40%.

Which inhibition in vivo at 10 mg/kg does the source give for `CC1(CN)CCN(c2nc(Nc3ccc4c(c3)NC(=O)C(C)(C)O4)nc3ccoc23)CC1` [C.1.33] here?
Its inhibition in vivo at 10 mg/kg is 30%.

For `Cn1ncc2cc(Nc3nc(NC4CC4)c4occc4n3)ccc21` [B.5.8], which inhibition in vivo at 10 mg/kg is on record?
The inhibition in vivo at 10 mg/kg was 49%.

With `O=c1ccc2ccc(Nc3nc(NC4CC4)c4occc4n3)cc2o1` [B.5.52] as the compound, how does the inhibition in vivo at 10 mg/kg read?
Its inhibition in vivo at 10 mg/kg is 0%.

Which inhibition in vivo at 10 mg/kg does the source give for `O=C1CCCc2cc(Nc3nc(NC4CC4)c4occc4n3)ccc2N1` [B.5.56] here?
Its inhibition in vivo at 10 mg/kg is 49%.

Which inhibition in vivo at 10 mg/kg does the source give for `CC1(C)Oc2ccc(Nc3nc(N4CCC5(CCCNC5)C4)c4occc4n3)cc2NC1=O` (stereo not shown) [C.1.36] here?
The inhibition in vivo at 10 mg/kg was -31%.

With `Cc1cc2ccc(Nc3nc(NC4CC4)c4occc4n3)cc2[nH]c1=O` [B.5.99] as the compound, how does the inhibition in vivo at 10 mg/kg read?
The inhibition in vivo at 10 mg/kg was 16%.

How did the inhibition in vivo at 10 mg/kg turn out when `Cc1n[nH]c2cc(Nc3nc(NC4CC4)c4occc4n3)ccc12` [Example #3, N^4-Cyclopropyl-N^2-(3-methyl-1H-indazol-6-yl)furo[3,2-d]pyrimidine-2,4-diamine] was run?
Its inhibition in vivo at 10 mg/kg is 75%.

How did the inhibition in vivo at 10 mg/kg turn out when `CN(C)C(=O)c1n[nH]c2cc(Nc3nc(NC4CC4)c4occc4n3)ccc12` [J.1, 6-(4-(Cyclopropylamino)furo[3,2-d]pyrimidin-2-ylamino)-N,N-dimethyl-1H-indazole-3-carboxamide] was run?
Its inhibition in vivo at 10 mg/kg is -2%.

How did the inhibition in vivo at 10 mg/kg turn out when `Cc1n[nH]c2cc(Nc3nc(N[C@@H]4[C@H](C(N)=O)[C@H]5C=C[C@@H]4C5)c4occc4n3)ccc12` [C.1.52] was run?
The inhibition in vivo at 10 mg/kg was 8%.

How did the inhibition in vivo at 10 mg/kg turn out when `Clc1cc(Nc2nc(NC3CCC3)c3occc3n2)ccc1N1CCOCC1` [B.5.2] was run?
Its inhibition in vivo at 10 mg/kg is 55%.

With `FC(F)(F)CNc1nc(Nc2ccc3cn[nH]c3c2)nc2ccoc12` [Example #13, N^2-(1H-Indazol-6-yl)-N^4-(2,2,2-trifluoroethyl)furo[3,2-d]pyrimidine-2,4-diamine] as the compound, how does the inhibition in vivo at 10 mg/kg read?
Its inhibition in vivo at 10 mg/kg is 70%.

`O=C1COc2ccc(Nc3nc(N4CCC(CNCC(F)F)CC4)c4occc4n3)cc2N1` [B.5.84] was tested. Which inhibition in vivo at 10 mg/kg did it give?
Its inhibition in vivo at 10 mg/kg is 38%.

For `CC1(C)C(=O)Nc2cc(Nc3nc(N4CCC(CNCCF)CC4)c4occc4n3)ccc21` [B.5.77], which inhibition in vivo at 10 mg/kg is on record?
Its inhibition in vivo at 10 mg/kg is 20%.

Which inhibition in vivo at 10 mg/kg does the source give for `CNCC1CCN(c2nc(Nc3ccc4cn[nH]c4c3)nc3ccoc23)CC1` [C.1.23] here?
Its inhibition in vivo at 10 mg/kg is -15%.

For `Cc1n[nH]c2cc(Nc3nc(N4CCC(C)(CN)CC4)c4occc4n3)ccc12` [C.1.31], which inhibition in vivo at 10 mg/kg is on record?
Its inhibition in vivo at 10 mg/kg is 0%.

With `CC(=O)N(C)c1ccc(Nc2nc(N3CCC(CN)CC3)c3occc3n2)cc1` [C.1.7] as the compound, how does the inhibition in vivo at 10 mg/kg read?
The inhibition in vivo at 10 mg/kg was 22%.

For `CC1(C)Cc2ccc(Nc3nc(NC4CC4)c4occc4n3)cc2NC1=O` [B.5.41], which inhibition in vivo at 10 mg/kg is on record?
The inhibition in vivo at 10 mg/kg was 42%.

Which inhibition in vivo at 10 mg/kg does the source give for `CC1(C)C(=O)Nc2cc(Nc3nc(NC4CCC4)c4occc4n3)ccc21` [B.5.108] here?
The inhibition in vivo at 10 mg/kg was 56%.

`CC1(C)C(=O)Nc2cc(Nc3nc(N4CCC(O)(CN)CC4)c4occc4n3)ccc21` [Example #AM.1.3] was tested. Which inhibition in vivo at 10 mg/kg did it give?
The inhibition in vivo at 10 mg/kg was 15%.

Which inhibition in vivo at 10 mg/kg does the source give for `O=C1CCc2ccc(Nc3nc(NC4CC4)c4occc4n3)cc2N1` [Example #7, 7-(4-(Cyclopropylamino)furo[3,2-d]pyrimidin-2-ylamino)-3,4-dihydroquinolin-2(1H)-one] here?
Its inhibition in vivo at 10 mg/kg is 73%.

How did the inhibition in vivo at 10 mg/kg turn out when `Cc1cc(Nc2nc(NC3CC3)c3occc3n2)cc2[nH]ncc12` [Example #AC.1, N^4-cyclopropyl-N^2-(4-methyl-1H-indazol-6-yl)furo[3,2-d]pyrimidine-2,4-diamine] was run?
The inhibition in vivo at 10 mg/kg was 43%.

`CC1Cc2ccc(Nc3nc(NC4CC4)c4occc4n3)cc2NC1=O` (stereo not shown) [Example #6, 7-(4-(Cyclopropylamino)furo[3,2-d]pyrimidin-2-ylamino)-3-methyl-3,4-dihydroquinolin-2(1H)-one] was tested. Which inhibition in vivo at 10 mg/kg did it give?
Its inhibition in vivo at 10 mg/kg is 59%.

How did the inhibition in vivo at 10 mg/kg turn out when `COc1cc(Nc2nc(N3CCC4(CCCNC4)CC3)c3occc3n2)ccc1N1CCOCC1` [C.1.39] was run?
The inhibition in vivo at 10 mg/kg was 44%.

`CC1(C)C(=O)Nc2cc(Nc3nc(N[C@@H]4[C@H](C(N)=O)[C@H]5C=C[C@@H]4C5)c4occc4n3)ccc21` [B.5.61] was tested. Which inhibition in vivo at 10 mg/kg did it give?
Its inhibition in vivo at 10 mg/kg is 1%.

How did the inhibition in vivo at 10 mg/kg turn out when `CC1(C)Oc2ccc(Nc3nc(N4CC[C@@H](CN)[C@H](O)C4)c4occc4n3)cc2NC1=O` [Example #AM.1.2] was run?
Its inhibition in vivo at 10 mg/kg is -16%.

For `CC(C)(C#N)c1ccc(Nc2nc(NC3CC3)c3occc3n2)cc1` [B.5.42], which inhibition in vivo at 10 mg/kg is on record?
The inhibition in vivo at 10 mg/kg was 27%.

How did the inhibition in vivo at 10 mg/kg turn out when `CC(C)CNc1nc(Nc2ccc3c(c2)NC(=O)C3(C)C)nc2ccoc12` [B.5.80] was run?
The inhibition in vivo at 10 mg/kg was 46%.
